{"source": "patent US8217042B2", "about": "“Pyridopyrazines and their use as modulators of kinases” (Zentaris GmbH, priority 2005, dated 2012)", "key": {"PI3Kalpha": {"target": "T1, PI3Kalpha (Homo sapiens, UniProt P42336)", "T1 construct": "in some cases as full-length kinases, in some cases as truncated fragments; purchased Upstate 14-602", "T1 sequence (P42336 whole entry, the tested form may be a part)": "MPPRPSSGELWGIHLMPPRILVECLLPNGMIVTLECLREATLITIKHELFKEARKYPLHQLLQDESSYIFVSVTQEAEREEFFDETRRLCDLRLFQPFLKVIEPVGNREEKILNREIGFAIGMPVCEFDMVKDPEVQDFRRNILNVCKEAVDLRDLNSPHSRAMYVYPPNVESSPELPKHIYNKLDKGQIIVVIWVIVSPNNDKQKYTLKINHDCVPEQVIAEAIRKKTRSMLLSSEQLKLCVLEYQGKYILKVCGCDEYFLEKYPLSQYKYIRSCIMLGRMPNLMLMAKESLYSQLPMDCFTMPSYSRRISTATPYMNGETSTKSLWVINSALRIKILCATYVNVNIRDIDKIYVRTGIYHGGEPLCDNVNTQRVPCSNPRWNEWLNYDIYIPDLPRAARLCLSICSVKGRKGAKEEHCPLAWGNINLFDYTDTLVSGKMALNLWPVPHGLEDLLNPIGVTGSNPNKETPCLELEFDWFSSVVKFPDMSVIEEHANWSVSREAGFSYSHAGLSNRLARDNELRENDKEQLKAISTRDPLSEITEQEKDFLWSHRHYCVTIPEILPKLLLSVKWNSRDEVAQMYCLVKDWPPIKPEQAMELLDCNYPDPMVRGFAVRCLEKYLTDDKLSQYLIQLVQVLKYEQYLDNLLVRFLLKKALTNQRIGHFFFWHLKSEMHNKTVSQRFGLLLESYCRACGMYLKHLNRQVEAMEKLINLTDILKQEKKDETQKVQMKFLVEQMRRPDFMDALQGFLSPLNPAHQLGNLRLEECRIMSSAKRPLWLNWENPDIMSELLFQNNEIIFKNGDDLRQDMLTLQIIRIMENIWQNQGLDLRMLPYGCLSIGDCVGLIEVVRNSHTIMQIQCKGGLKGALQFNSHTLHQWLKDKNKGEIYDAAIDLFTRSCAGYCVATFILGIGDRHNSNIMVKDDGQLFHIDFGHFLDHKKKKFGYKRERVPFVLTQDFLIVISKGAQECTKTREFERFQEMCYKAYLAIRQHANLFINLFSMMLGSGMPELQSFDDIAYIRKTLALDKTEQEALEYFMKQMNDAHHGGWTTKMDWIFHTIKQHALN", "T1 sequence (P27986 whole entry partner, the tested form may be a part)": "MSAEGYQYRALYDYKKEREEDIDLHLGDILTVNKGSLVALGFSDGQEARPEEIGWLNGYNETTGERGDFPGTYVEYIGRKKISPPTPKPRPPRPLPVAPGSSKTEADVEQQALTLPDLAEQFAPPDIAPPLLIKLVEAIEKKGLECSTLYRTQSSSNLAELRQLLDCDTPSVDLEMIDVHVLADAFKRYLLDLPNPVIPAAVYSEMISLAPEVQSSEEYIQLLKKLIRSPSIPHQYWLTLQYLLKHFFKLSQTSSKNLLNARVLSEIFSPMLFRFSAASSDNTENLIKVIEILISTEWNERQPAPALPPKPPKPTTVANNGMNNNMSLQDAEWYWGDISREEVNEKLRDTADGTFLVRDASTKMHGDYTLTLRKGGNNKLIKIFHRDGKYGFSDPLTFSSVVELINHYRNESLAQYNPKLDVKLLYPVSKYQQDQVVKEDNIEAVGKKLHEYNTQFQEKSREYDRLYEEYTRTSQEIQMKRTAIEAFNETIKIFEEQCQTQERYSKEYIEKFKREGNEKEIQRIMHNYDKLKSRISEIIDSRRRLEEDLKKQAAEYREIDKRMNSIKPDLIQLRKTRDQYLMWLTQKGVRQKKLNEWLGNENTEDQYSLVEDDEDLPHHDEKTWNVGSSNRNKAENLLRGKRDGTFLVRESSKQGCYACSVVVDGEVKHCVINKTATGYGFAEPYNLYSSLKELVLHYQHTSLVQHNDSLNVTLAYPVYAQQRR", "assay": "Cell-free kinase assay (ALPHA technology), PI3K-ALPHA", "type": "biochemical", "conditions": "100 μM ATP, recombinant human kinase", "description": "(§1) The inhibitory effect of the inventive compounds was tested on various human serine/threonine kinases, tyrosine kinases and lipid kinases in enzymatic assays. Recombinant human kinases, for example Erk2, PI3Kalpha, -beta, -gamma, -delta, p38alpha, p38gamma, Jnk1, Jnk2 and others were used, in some cases as full-length kinases, in some cases as truncated fragments—but at least consisting of the functional kinase domains. The commercial kinase proteins (Proqinase, Upstate) were used as recombinant fusion proteins with GST (glutathione S-transferase) tag or His tag. Depending on the substrate type, the different kinase reactions were quantified by means of suitable ALPHA™ beads (PerkinElmer).\nThe substrate testing on the Erk assay is described in detail below. Selected test results of the Erk2, PI3Kalpha assays are cited below. […] The kinase reaction was then stopped by adding 10 μl of the ALPHA bead mix (10 μg/ml, #6760617/PerkinElmer), pre-incubated with anti-phospho MBP antibody (320 μM, #05-429/Upstate), in 25 mM Tris, 200 mM NaCl, 100 mM EDTA and 0.3% BSA, and left to stand overnight. • b) PI3K-ALPHAs (e.g. PI3Kalpha): The test substance, 1 ng of PI3Kalpha (#14-602, Upstate), 100 μM ATP and 20 μM PIP2 substrate (#P4508, Echelon) on a 384-well Optiplate (Perkin Elmer) for 1 h in 50 mM Hepes, 50 mM NaCl, 5 mM MgCl2, 0.05% Chaps, 5 mM DTT at pH 7.4. Subsequently, the kinase reaction was stopped by adding the ALPHA bead mix (10 μg/ml, #6760603/PerkinElmer), preincubated with 1 nM GST:Grp1 fusion protein (Upstate) and 15 nM biotinylated PIP3 (#C-39B6/Echelon) in 50 mM Hepes, 50 mM NaCl, 50 mM EDTA and 0.1% BSA, and left to stand overnight.\n(§2) The fluorescence was detected the next morning in a Fusion™ alpha instrument (Perkin Elmer).\n(§3) The calculation of % inhibition values per substance concentration was done by means of the following formula from the raw data determined in the Fusion™ alpha:\n(§4) The controls were each determined 8 times, the substance samples each twice. 0% control contained neither any ATP nor any substrate; the 100% control contained no test substance. The IC50 values were determined with GraphPadPrism."}, "p38alpha": {"target": "T2, p38alpha (Homo sapiens, UniProt Q16539)", "T2 construct": "in some cases as full-length kinases, in some cases as truncated fragments", "T2 sequence (Q16539 whole entry, the tested form may be a part)": "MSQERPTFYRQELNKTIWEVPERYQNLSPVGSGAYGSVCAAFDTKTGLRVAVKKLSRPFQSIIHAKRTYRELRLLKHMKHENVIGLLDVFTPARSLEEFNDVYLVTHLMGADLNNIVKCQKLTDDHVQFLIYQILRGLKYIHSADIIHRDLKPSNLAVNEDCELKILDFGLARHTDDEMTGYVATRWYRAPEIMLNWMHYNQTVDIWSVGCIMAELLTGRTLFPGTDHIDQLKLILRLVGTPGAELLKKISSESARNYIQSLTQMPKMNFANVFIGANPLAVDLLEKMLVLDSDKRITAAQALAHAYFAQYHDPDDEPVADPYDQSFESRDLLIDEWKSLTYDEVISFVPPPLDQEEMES", "assay": "Cell-free kinase assay (ALPHA technology), p38alpha", "type": "biochemical", "conditions": "at 10 μM or 100 μM* ATP, recombinant human kinase", "description": "as §1, with “(PerkinElmer). […]” for “(PerkinElmer).”\nas §2, §3, §4"}, "Erk →pRsk": {"system": "Erk →pRsk", "assay": "Cellular substrate phosphorylation (Western blotting), Erk substrate Rsk1", "type": "cell-based", "conditions": "5 h, tumour cell line", "description": "This method enables a statement of whether the kinase modulator investigated achieves the desired effect in a cellular context too, i.e., in this case, a substrate protein downstream of the target kinase is examined for its phosphorylation status. To this end, the cells incubated with substance are lysed and the overall protein is separated on a reducing polyacrylamide gel. Subsequently, the proteins are transferred by means of Western blotting to a PVDF membrane and the substrate bands sought are made visible with specific antibodies and a suitable detection method. The substrate proteins downstream of the target kinases are detected simultaneously with an anti-phospho antibody which is specific in each case and simultaneously a total antibody which recognizes the substrate total protein. The duplex technology of the ODYSSEY imager (LiCOR) enables this simultaneous measurement. The intensity of the total substrate bands is employed to normalize and quantify the phosphorylation inhibition or activation.\nSuitable tumour cell lines (e.g. BxPC3, Hct116 or MDA MB468) were seeded into 6-well microtitre plates in a defined cell count (e.g. 350 000 cells/well for BxPC3 and Hct116) in the particular standard complete media and then incubated overnight in an incubator at 37° C., 5% CO2 and 95% air humidity. The cells were then incubated further for a further 24 h under reduced-serum conditions, i.e. in the particular medium except at only 0.25% serum. The test substances were made up as stock solutions (10 mM) in DMSO and incubated with the cells at final concentrations of 5, 15.8 and 50 μM for 5 h. This was followed by cell lysis in 25 mM Tris, 150 mM NaCl, 10 mM sodium pyrophosphate, 2 mM EGTA, 25 mM beta-glycerophosphate, 25 mM NaF, 10% glycerol, 0.75% NP-40, 100 μM NaVO4 buffer. After protein quantification by means of BCA (bicinchonic acid protein assay kit, Sigma) assay, amounts of protein of about 20 μg per track were separated on a Lammli polyacrylamide gel and then transferred onto a PVDF membrane (Millipore) by means of semi-dry Western blotting at 0.8 mA/cm^2 for 1 h. This was followed by prehybridization of the membrane for 1 hour in I-block reagent (Applied Biosystems) and overnight incubation with the specific antibodies. To determine the Erk and PI3K inhibition, the next substrates Rsk1 downstream were detected with the total antibody (Rsk #sc-231g C-21, Santa Cruz) and the phospho antibody (Phospho-p90RSK (S380) #9341, NEB Cell Signalling) and Akt with the total antibody (Akt1 #sc-20, Santa Cruz) and the phospho antibody (Phospho-Akt (Ser 473) #9271, NEB Cell Signaling). After the membrane had been washed, the secondary antibodies were incubated with anti-rabbit IR Dye 800 (#611-732-127, Rockland) for the phospho antibody and anti-goat Alexa Fluor 680 (#A-21081, […]) for the total protein antibody. After incubation for 30 min at room temperature in the dark, the hybridization of the detection antibody was detected on the membrane by scanning in an ODYSSEY imager (LiCOR)."}}, "note": "pIC50: −log10 of the molar value."}
{"smiles": "CCNC(=O)Nc1ccc2ncc(Nc3ccc(C)c(NS(C)(=O)=O)c3)nc2n1", "note": "[Compound 49, N-{5-[6-(3-Ethylurea)pyrido[2,3-b]pyrazin-3-ylamino]-2-methylphenyl}methanesulphonamide]", "values": [{"measurement": "pIC50", "setting": "PI3Kalpha", "value": 5.72}, {"measurement": "pIC50", "setting": "p38alpha", "value": 5.40}, {"measurement": "inhibition at 50 µM", "setting": "Erk →pRsk", "value": 0, "unit": "%"}, {"measurement": "melting point", "value": "247 to 250", "unit": "°C"}]}
